Assay results taken from patent publication US20060134144A1, “Mucoadhesive composition and formulation for solubilization of insoluble drugs and preparation method thereof” (priority 2002, published 2006).

Experiment: Dispersion behaviour on mixing with water
Type: physicochemical
Conditions: mixed with water
Procedure: The size of the emulsion particles were measured by using Malvern Zetasizer (Malvern Instruments Limited, England) after preparing the emulsion by adding 3 mL of distilled water to 2 μL of thus obtained liquid formulation. An average particle size and polydispersity were obtained by measuring values for a given formulation three times (Orr, Encyclopedia of emulsion technology, 1, 369-404, 1985). The polydispersity was obtained as the variance indicated by the logarithmic scale in the logarithmic normal distribution function. The above method in measuring the particle size and the polydispersity was used throughout the following examples.
The above composition exists as semi-solid or solid at room temperature and in a refrigerator, respectively, but as liquid at or above 40° C. Dispersion with the average particle size of 530 nm was obtained when the above composition was vortexed for 10 s in water. The absorbance at 400 nm was 2.36.
Monoolein (99.5% purity) from Nu-Chek Prep (Elysian, Minn., USA) or Myverol 18-99K (monoolein content 86.6 weight %) from Danisco A/S (Copenhagen, Denmark) were mixed with water. […] Since the cubic phase had very high viscosity and floated in water, the particle size or absorbance could not be determined.

SMILES: CCCCCCCC/C=C\CCCCCCCC(=O)OCC(O)CO (stereo not shown) [Monoolein (99.5% purity), Monoolein]
- dispersion behaviour in water: Cubic phases were formed instead of dispersion
